Measured values as given in patent publication US20080139536A1, “Benzodiazepines for Treating or Preventing Rsv Infection” (Novartis Pharmaceuticals Corporation, priority 2004, published 2008).

Legend:
Hep-2 cells = assay: Cell toxicity: crystal violet staining and microscopic examination of monolayers; assay type: cell-based; settings: Hep-2 monolayers of the assay plates, crystal violet stain, indications of cell toxicity; compounds tested 50 μM-0.78 μM
Procedure: (§1) All 96 wells of a microtitre plate were seeded at a density of 4×10^3 Hep-2 cells/well in 100 μl/well of Growth Medium (GM) consisting of Dulbecco's MEM (DMEM) with Glutamax-1, Sodium Pyruvate, 1000 mg/l glucose and pyridoxine (Invitrogen, catalogue number 21885-025) and supplemented with 10% FBS. (See Plate 1).
(§2) Six compounds were tested on each assay plate as illustrated below. (See Plate 3). Compounds were tested in duplicate wells across a 7-point dilution series (from 50 μM-0.78 μM): in the presence of virus.
The wells were emptied, washed in tap water and the monolayers stained with 50 μl/well of 2% crystal violet in 20% methanol/water for at least 1 hour. The wells were then washed and air-dried and the monolayers examined under the microscope for indications of cell toxicity.

RSV (RSS strain) = assay: RSV ELISA antigen reduction assay in Hep-2 cells; assay type: cell-based, Respiratory Syncytial Virus; settings: RSV-infected Hep-2 cells, 3 day assay, ELISA OD 490 nm, 7-point dilution 50 μM-0.78 μM
Procedure: This was quantified by optical density (OD) measurement.
This assay was set up using all 96 wells of flat-bottomed 96-well plates. The outer wells were not subjected to any greater amount of evaporation than the inner wells during the 3 day assay period. (i.e. No “edge effect” seen).
Plates were set up one day before addition of virus and compounds. The assay then ran for 3 days with ELISA development taking place on the 4th day.
as §1
A frozen vial of RSV (RSS strain provided by Virogen Ltd) stock solution was removed from the −80 freezer or liquid nitrogen store and diluted to a known Multiplicity of Infection (m.o.i) in Growth Medium.
The m.o.i. was calculated by prior titration of the virus stock (by the ELISA assay method) as the virus input required to achieve a window of at least 0.8 OD units between infected and uninfected control wells.
50 μl of diluted virus was added to infected, “virus+”, wells by multichannel pipette; 50 μl of Growth Medium was added to uninfected, cell control wells (CC) by multichannel pipette. (See Plate 2)
Plates were incubated at 37° C. for 1 hr to allow virus adsorption.
Compounds were made up at 4× strength in GM containing 2% DMSO (a final DMSO concentration in the assay of 0.5%).
as §2
Virus infected, untreated wells served as the virus control (VC); Uninfected, untreated wells serve as the cell control (CC). The difference in absorbance between CC and VC wells constitutes the assay window.
200 μl of GM containing 2% DMSO was added to all wells except the ‘50 μM’ or first column, to which 392 μl of GM was added. 8 μl of each test compound was cherry-picked from a thawed Arrow screening plate and transferred to the appropriate well in the ‘50 μM’ column. Since the compound stock was at 10 mM in 100% DMSO, this will maintain the DMSO level at 2% at the top compound concentration.
Using a multichannel pipette, 200 μl was transferred from the 50 μM column to the 25 μM column, then to the 12.5 μM column and so on across the dilution plate creating a serial doubling dilution. Compounds were mixed upon transfer and tips changed between transfers, ensuring also that no compound was transferred to the last column of compound-free wells (0 μM).
The dilution plate was turned lengthways and 50 μl of compound easily transferred by multichannel pipette from the dilution plate to the assay plate, column by column. There was therefore an excess of 100 μl remaining in the dilution plate.
Plates were incubated at 37° C., 5% CO2 for 3 days.
Media was tapped out from wells directly into Virkon (1% solution in water) and plates were washed by immersing in a plastic box containing PBS. 50 μl/well of 75%/25% vol/vol acetone/methanol fixative was added by multichannel pipette and left for 3 mins.
Some 200 μl of blocking solution (2% Marvel in PBS containing 0.05% Tween) was added per well by multichannel pipette. Plates were incubated at 37° C. in a shaking incubator for 60 mins.
RSV mouse monoclonal antibody NCL-RSV3 (Novocastra) was diluted 1/400 in PBS/2% Marvel/0.05% Tween and 50 μl was added per well. Plates were incubated at 37° C. in a shaking incubator for 90 mins.
DAKo rabbit anti-mouse HRP conjugate (DAKO catalogue number P0260) was diluted 1/1000 in PBS/2% Marvel/0.05% Tween and 50 μl was added per well. Plates were incubated at 37° C. in a shaking incubator for 60 mins.
Substrate (SigmaFast OPD) was prepared in advance by dissolving 1 urea tablet in 20 mL water. […]

[1] = human respiratory syncytial virus, 72 h

Row | SMILES | TD50 (Hep-2 cells) | IC50 (RSV (RSS strain); [1]) [µM] | IC50 (RSV (RSS strain)) [µM]
1 | N#Cc1ccc(C(=O)N[C@H]2N=C(c3ccccc3)c3ccccc3NC2=O)c(N2CCCC2)c1 [Example 14, (S)-4-Cyano-N-(2-oxo-5-phenyl-2,3-dihydro-1H-benzo[e][1,4]diazepin-3-yl)-2-pyrrolidin-1-yl-benzamide] | Tr50 | < 5 | 
2 | N#Cc1ccc(C(=O)N[C@H]2N=C(c3ccccc3)c3ccccc3NC2=O)c(N2CCCCC2)c1 [Example 15, (S)-4-Cyano-N-(2-oxo-5-phenyl-2,3-dihydro-1H-benzo[e][1,4]diazepin-3-yl)-piperidine-1-yl-benzamide] | Tr25 |  | > 10
3 | O=C(N[C@H]1N=C(c2ccccc2)c2ccccc2NC1=O)c1cccnc1N1CCOCC1 [Example 21, (S)-2-Morpholin-4-yl-N-(2-oxo-5-phenyl-2,3-dihydro-1H-benzo[e][1,4]diazepin-3-yl)-nicotinamide] | Tr25 | 5 to 10 | 
